According to patent US9867836B2, “Lavage and/or infusion using CSA compounds for increasing fertility in a mammal” (priority 2014, dated 2018):

What was measured:
[1] = system: Escherichia coli; test: Sensitivity panel on organism isolated from mare endometrium; assay type: cell-based; conditions: isolate from endometrium of 16 year old Quarter Horse mare
Source text: (§1) The microscopic findings from the lab were described as mild to moderate diffuse acute superficial […], Grade IIA endometrium. The lab also isolated Escherichia coli and Alpha-hemolytic streptococci. The sensitivity panel yielded the results in Table 1.

[2] = system: Alpha hemolytic streptococci; test: as above; assay type: cell-based; conditions: isolate from endometrium of 16 year old Quarter Horse mare
Source text: as §1

| Compound | Sensitivity Panel, Escherichia coli Organism Isolated [1] | Sensitivity Panel, Alpha hemolytic streptococci organism isolated [2] |
| --- | --- | --- |
| CCN1CCN(c2cc3c(cc2F)c(=O)c(C(=O)O)cn3C2CC2)CC1 [Enrofloxacin] | Sensitive | Sensitive |
| CC1(C)S[C@@H]2[C@H](NC(=O)[C@H](C(=O)O)c3ccsc3)C(=O)N2[C@H]1C(=O)O [Ticarcillin] | Sensitive | Sensitive |
| CC[C@H]1OC(=O)[C@H](C)[C@@H](O[C@H]2C[C@@](C)(OC)[C@@H](O)[C@H](C)O2)[C@H](C)[C@@H](O[C@@H]2O[C@H](C)C[C@H](N(C)C)[C@H]2O)[C@](C)(O)C[C@@H](C)C(=O)[C@H](C)[C@@H](O)[C@]1(C)O [Erythromycin] | – | Sensitive |
| Cc1nnc(SCC2=C(C(=O)O)N3C(=O)[C@@H](NC(=O)Cn4cnnn4)[C@H]3SC2)s1 [Cefazolin] | Sensitive | Sensitive |
| NCC[C@H](O)C(=O)N[C@@H]1C[C@H](N)[C@@H](O[C@H]2O[C@H](CN)[C@@H](O)[C@H](O)[C@H]2O)[C@H](O)[C@H]1O[C@H]1O[C@H](CO)[C@@H](O)[C@H](N)[C@H]1O [Amikacin] | Sensitive | Resistant |
| Trimmicosin | Intermediate | – |
| CC1(C)S[C@@H]2[C@H](NC(=O)[C@H](N)c3ccccc3)C(=O)N2[C@H]1C(=O)O [Ampicillin] | Intermediate | Sensitive |
| Gentamicin | Sensitive | Resistant |
| TMP/Sulfa | Resistant | Sensitive |
| CS(=O)(=O)c1ccc([C@@H](O)[C@@H](CF)NC(=O)C(Cl)Cl)cc1 [Florfenicol] | Sensitive | – |
| CO/N=C(\C(=O)N[C@@H]1C(=O)N2C(C(=O)O)=C(CSC(=O)c3ccco3)CS[C@H]12)c1csc(N)n1 [Ceftiofur] | Sensitive | Sensitive |
| CO[C@H]1/C=C/O[C@@]2(C)Oc3c(C)c(O)c4c(O)c(c(/C=N/N5CCN(C)CC5)c(O)c4c3C2=O)NC(=O)/C(C)=C\C=C\[C@H](C)[C@H](O)[C@@H](C)[C@@H](O)[C@@H](C)[C@H](OC(C)=O)[C@@H]1C [Rifampin] | – | Sensitive |
